# Assay results: patent US8748395B2, “Cell-permeable peptide inhibitors of the JNK signal transduction pathway” (Xigen Inflammation Ltd., priority 2006, dated 2014)
# How the values were obtained:
# [1] = system: gerbil; details: in vivo; cited from earlier work
# [2] = system: primary embryonic cultures and differentiated PC12 cells; details: dosages that inhibit activation of JNKs; cited from earlier work
# [3] = system: WiDr cells; assay: Irradiation (30 Gy) induced apoptosis of WiDr cells; assay type: cell-based, human; details: 1 μM added 30 minutes before 30 Gy, analyzed 48 hours later
# Procedure: JNK is also activated by ionizing radiation. To determine whether inventive TAT-IB(s) peptides would provide protection against radiation-induced JNK damage, “WiDr” cells were irradiated (30 Gy) in presence or absence of D-TAT, inventive L-TAT-IB1(s) or inventive D-TAT-IB1(s) peptides (1 μM added 30 minutes before irradiation). Control cells (CTRL) were not irradiated. Cells were analyzed 48 hours later by means of PI and Hoechst 3342 staining, as described above. N=3, SEM are indicated.
# [4] = system: AP-1 DNA binding complex; assay: Gel retardation assay with AP-1 probe, HeLa cell nuclear extracts, TNF-α; assay type: cell-based; details: peptide added 30 minutes before TNF-α 5 ng/ml
# [5] = system: JNK; details: JBDs; cited from earlier work
# [6] = system: βTC-3 cell cultures; assay: Cellular import of fluorescein-labeled TAT and TAT-IB1(s) peptides; assay type: cell-based
# Procedure: The ability of the L- and D-enantiomeric forms of TAT and inventive TAT-IB1(s) peptides (“TAT-IB peptides”) to enter cells was evaluated. L-TAT, D-TAT, inventive L-TAT-IB1(s), and inventive D-TAT-IB1(s) peptides [SEQ ID NOs: 5, 6, 9 and 12, respectively] were labeled by N-terminal addition of a glycine residue conjugated to fluorescein. Labeled peptides (1 μM) were added to βTC-3 cell cultures, which were maintained as described in Example 3. At predetermined times cells were washed with PBS and fixed for five minutes in ice-cold methanol-acetone (1:1) before being examined under a fluorescence microscope. Fluorescein-labeled BSA (1 μM, 12 moles/mole BSA) was used as a control.
# [7] = system: recombinant JNK1, JNK2 and JNK3; assay: Solid phase kinase assay: JNK-mediated phosphorylation of c-Jun, ATF2 and Elk1; assay type: biochemical
# Procedure: (§1) The effects of the peptides on JNKs-mediated phosphorylation of their target transcription factors were investigated in vitro. Recombinant and non activated JNK1, JNK2 and JNK3 were produced using a TRANSCRIPTION AND TRANSLATION rabbit reticulocyte lysate kit (PROMEGA®) and used in solid phase kinase assays with c-jun, ATF2 and Elk1, either alone or fused to glutathione-S-transferase (GST), as substrates. Dose response studies were performed wherein inventive L-TAT or L-TAT-IB1(s) peptides (0-25 μM) were mixed with the recombinant JNK1, JNK2, or JNK3 kinases in reaction buffer (20 mM Tris-acetate, 1 mM EGTA, 10 mM p-nitrophenyl-phosphate (pNPP), 5 mM sodium pyrophosphate, 10 mM p-glycerophosphate, 1 mM dithiothreitol) for 20 minutes. The kinase reactions were then initiated by the addition of 10 mM MgCl2 and 5 pCi^33P-γ-dATP and 1 μg of either GST-Jun (aa 1-89), GST-AFT2 (aa 1-96) or GST-ELK1 (aa 307-428). GST-fusion proteins were purchased from Stratagene (La Jolla, Calif.).
# (§2) Ten μL of glutathione-agarose beads were also added to the mixture. Reaction products were then separated by SDS-PAGE on a denaturing 10% polyacrylamide gel. Gels were dried and subsequently exposed to X-ray films (Kodak).
# The ability of D-TAT, inventive D-TAT-IB1(s) and inventive L-TAT-IB1 (s) peptides (0-250 μM dosage study) to inhibit GST-Jun (aa 1-73) phosphorylation by recombinant JNK1, JNK2, and JNK3 by were analyzed as described above. Overall, D-TAT-IB1(s) peptide decreased JNK-mediated phosphorylation of c-Jun, but at levels approximately 10-20 fold less efficiently than L-TAT-IB1(s).
# [8] = molecular target: T1, JNK3 (Homo sapiens, UniProt P53779); assay: Solid phase kinase assay: JNK3 phosphorylation of Elk1; assay type: biochemical; details: dose response 0-25 μM, GST-ELK1 (aa 307-428)
# T1 construct: host or cells: rabbit reticulocyte lysate, in vitro transcription/translation
# Procedure: as §1, §2
# [9] = system: JNKs activated by stressful stimuli; assay: c-Jun phosphorylation by activated JNKs pulled down with GST-Jun from UV-irradiated HeLa or IL-1β treated βTC-3 cells; assay type: biochemical; details: 25 μM peptide, 20 minutes
# Procedure: The effects of the L-TAT or inventive L-TAT-IB1(s) peptides on JNKs activated by stressful stimuli were evaluated using GST-Jun to pull down JNKs from UV-light irradiated HeLa cells or IL-1β treated PTC cells. PTC cells were cultured as described above. HeLa cells were cultured in DMEM medium supplemented with 10% Fetal Calf Serum, 100 μg/mL Streptomycin, 100 units/ml Penicillin and 2 mM Glutamine. One hour prior to being used for cell extract preparation, PTC cells were activated with IL-1β as described above, whereas HeLa cells were activated by UV-light (20 J/m^2). Cell extracts were prepared from control, UV-light irradiated HeLa cells and IL-1β treated βTC-3 cells by scraping the cell cultures in lysis buffer (20 mM Tris-acetate, 1 mM EGTA, 1% Triton X-100, 10 mM p-nitrophenyl-phosphate, 5 mM sodium pyrophosphate, 10 mMP-glycerophosphate, 1 mM dithiothreitol). Debris was removed by centrifugation for five minutes at 15,000 rpm in an SS-34 Beckman rotor. One-hundred μg extracts were incubated for one hour at room temperature with one μg GST-jun (amino acids 1-89) and 10 μL of glutathione-agarose beads (Sigma). Following four washes with the scraping buffer, the beads were resuspended in the same buffer supplemented with L-TAT or inventive L-TAT-IB1(s) peptides (25 μM) for 20 minutes. […]
# [10] = system: activation of c-Jun by JNK; assay: GAL4 reporter system (GAL-Jun, 5xGAL-LUC) in HeLa cells with MKK4/MKK7 co-transfection; assay type: cell-based
# Excerpt: To determine whether the inventive cell-permeable peptides could block JNK signaling in vivo, we used a heterologous GAL4 system. HeLa cells, cultured as described above, were co-transfected with the 5×GAL-LUC reporter vector together with the GAL-Jun expression construct (Stratagene) comprising the activation domain of c-jun (amino acids 1-89) linked to the GAL4 DNA-binding domain. Activation of JNK was achieved by the co-transfection of vectors expressing the directly upstream kinases MKK4 and MKK7 (see Whitmarsh et al., Science 285: 1573 (1999)). Briefly, 3×10^5 cells were transfected with the plasmids in 3.5-cm dishes using DOTAP (Boehringer Mannheim) following instructions from the manufacturer. For experiments involving GAL-Jun, 20 ng of the plasmid was transfected with 1 μg of the reporter plasmid pFR-Luc (Stratagene) and 0.5 μg of either MKK4 or MKK7 expressing plasmids. Three hours following transfection, cell media were changed and TAT and TAT-IB1(s) peptides (1 μM) were added. The luciferase activities were measured 16 hours later using the “Dual Reporter System” from PROMEGA® after normalization to protein content. […] Because HeLa cells express JNK1 and JNK2 isoforms but not JNK3, we transfected cells with JNK3.
# [11] = system: βTC-3 cells; assay: Inhibition of IL-1β induced pancreatic β-cell death by TAT-IB peptides; assay type: cell-based
# Procedure: We investigated the effects of the inventive L-TAT-IB(s) peptides on the promotion of β-cell apoptosis elicited by IL-1. PTC-3 cell cultures were incubated for 30 minutes with 1 μM of inventive L-TAT-IB1(s) peptides followed by 10 ng/mL of IL-1. A second addition of peptide (1 μM) was performed 24 hours later. Apoptotic cells were counted after two days of incubation with IL-1β using propidium iodide (red stained cell are dead cells) and Hoechst 33342 (blue stained cell are cells with intact plasma membrane) nuclear staining.
# Long term inhibition of IL-1 induced cells death was examined by treating βTC-3 cells as described above, except that incubation of the cells with the peptides and IL-1β was sustained for 12 days. Additional peptides (1 μM) were added each day and additional IL-1β (10 ng/mL) was added every 2 days. […] Taken together, these experiments provide evidence that inventive TAT-IB(s) peptides are biologically active molecules able to prevent the effects of JNK signaling on cell fate.
# Inhibition of IL-1β induced pancreatic β-cell death by the inventive D-TAT-IB1(s) peptide was analyzed. βTC-3 cells were incubated as described above for 30 minutes with one single addition of the indicated peptides (1, μM), then IL-1 (10 ng/ml) was added.
# Apoptotic cells were then counted after two days of incubation with IL-1β by use of Propidium Iodide and Hoechst 33342 nuclear staining. A minimum of 1,000 cells were counted for each experiment. Standard Error of the Means (SEM) are indicated, n=5.
# Long term inhibition of IL-1P induced cell-death by the D-TAT-IB1 peptide was also analyzed. βTC-3 cells were incubated as above for 30 minutes with one single addition of the indicated peptides (1 μM), then IL-1β (10 ng/ml) was added, followed by addition of the cytokine every two days. Apoptotic cells were then counted after 15 days of incubation with IL-1 by use of propidium iodide and Hoechst 33342 nuclear staining. […] A minimum of 1.000 cells were counted for each experiment.
# T1 sequence (P53779 whole entry, species assumed, the tested form may be a part): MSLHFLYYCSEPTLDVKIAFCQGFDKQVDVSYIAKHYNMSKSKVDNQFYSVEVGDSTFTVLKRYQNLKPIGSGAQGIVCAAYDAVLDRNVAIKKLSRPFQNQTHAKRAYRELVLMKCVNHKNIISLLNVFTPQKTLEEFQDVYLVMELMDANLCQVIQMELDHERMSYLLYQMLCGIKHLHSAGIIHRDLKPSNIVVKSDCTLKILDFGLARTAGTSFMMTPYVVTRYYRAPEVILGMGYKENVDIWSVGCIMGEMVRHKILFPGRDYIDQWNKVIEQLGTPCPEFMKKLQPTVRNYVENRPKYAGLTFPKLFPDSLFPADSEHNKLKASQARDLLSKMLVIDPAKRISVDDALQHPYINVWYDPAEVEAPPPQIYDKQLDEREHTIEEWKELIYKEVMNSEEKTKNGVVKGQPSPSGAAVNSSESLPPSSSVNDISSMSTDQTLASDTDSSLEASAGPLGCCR
molecule,measurement,setting,value
N#CC(c1ccnc(NCCc2cccnc2)n1)c1nc2ccccc2s1 (centres unmarked) [AS601245],protection against delayed loss of hippocampal CA1 neurons,[1],significant protection against the delayed loss of hippocampal CA1 neurons
CCSCc1ccc2c(c1)c1c3c(c4c5cc(CSCC)ccc5n5c4c1n2[C@H]1C[C@](O)(C(=O)OC)[C@]5(C)O1)CNC3=O [CEP-1347],neuronal survival,[2],promotes neuronal survival at dosages that inhibit activation of the c-Jun amino-terminal kinases (JNKs)
H-GRKKRRQRRRPPRPKRPTTLNLFPQVPRSQD-OH [L-TAT-IB1(s)],prevention of irradiation induced apoptosis,[3],able to prevent irradiation induced apoptosis
same,formation of the AP-1 DNA binding complex,[4],decrease the formation of the AP-1 DNA binding complex in the presence of TNF-α
IPSPSVEEPHKHRPTTLRLTTLGAQDS (IPSPSVEEPHKHRPTTLRLTTLGAQDS) [IB2],efficiency in binding JNK relative to c-Jun or ATF2,[5],approximately 100 fold
NH2-GRKKRRQRRR-COOH (H-GRKKRRQRRR-OH) [L-TAT],entry of fluorescein labeled peptide into cells,"[6]; 1 μM labeled peptide added to culture medium, fluorescence microscope",efficiently and rapidly (less than five minutes) entered cells
NH2-RRRQRRKKRG-COOH (D-amino acids) [D-TAT],stability inside the cells,[6],extremely stable inside the cells
PGTGCGDTYRPKRPTTLNLFPQVPRSQDT (PGTGCGDTYRPKRPTTLNLFPQVPRSQDT) [IB1],efficiency in binding JNK relative to c-Jun or ATF2,[5],approximately 100 fold
TAT-IB(s): enantiomer not worded; the examples concerned name L-TAT-IB1(s) (SEQ ID NO: 9) as the tested peptide (GRKKRRQRRRPPRPKRPTTLNLFPQVPRSQD),"inhibition of JNK family phosphorylation of target transcription factors, overall",[7],superior effects in inhibiting JNK family phosphorylation of their target transcription factors
same,"peptide dose giving nearly complete inhibition of c-Jun, ATF2 and Elk1 phosphorylation by JNKs","[7]; dose response 0-25 μM, doses as low as",2.5 µM
same,inhibition of JNK3 phosphorylation of Elk1,[8],absence of TAT-IB(s) inhibition of JNK3 phosphorylation of Elk1
same,prevention of phosphorylation of c-Jun by activated JNKs,[9],efficiently prevented phosphorylation of c-Jun by activated JNKs
same,activation of c-Jun following MKK4 and MKK7 mediated activation of JNK (luciferase),"[10]; 1 μM peptide, luciferase measured 16 hours later",blocked activation of c-Jun following MKK4 and MKK7 mediated activation of JNK
same,activation of c-Jun in cells transfected with JNK3,"[10]; HeLa cells transfected with JNK3, 1 μM peptide",inhibited JNK2 mediated activation of c-Jun
same,inhibition of IL-1-induced apoptosis,"[11]; 1 μM peptide, second addition at 24 hours, IL-1β 10 ng/mL for two days",inhibited IL-1-induced apoptosis of βTC-3 cells
same,long term protection against IL-1 induced apoptosis,"[11]; 12 days, peptide 1 μM added each day, IL-1β every 2 days",confers strong protection against apoptosis
"TDQSRPVQPFLNLTTPRKPRYTDPPRRRQRRKKRG (TDQSRPVQPFLNLTTPRKPRYTDPPRRRQRRKKRG) [D-TAT-IB1, reference compound]",decrease of IL-1 induced apoptosis,"[11]; one single addition of peptide 1 μM, two days of IL-1β",decreased IL-1 induced apoptosis to a similar extent as L-TAT-IB peptides
